According to US5235045A, “Non-azo naphthalimide dyes” (priority 1992, dated 1993):

Legend:
[1] = system: Human Herpes Simplex Virus Type I; test: Photoinduced inactivation of HSV-I, plaque assay (Table 11); format: cell-based; conditions: 420±5 nm, 20J/cm^2
H9 cells = test: Take-up of Ed6Br by H9 cells; format: cell-based, human; conditions: for Cellular Ed6Br: 22° C.
Experimental: H9 cells (an immortal human T-cell lymphoma) were cultured in RPMI-1640 medium containing 10% additional fetal calf serum held in air with a 5% CO2 atmosphere at 37.5° C. to a cell density in the range of 10^5 -10^7 per ml. Cells were harvested by centrifugation and four 3-milliliter aliquots containing 5×10^5 H9 cells per ml suspended in RPM I-1640 medium with 10% additional fetal calf serum were prepared. […] The fourth aliquot served as a dye-free control. Immediately after addition of the dyes, 1 ml samples were harvested from each aliquot and the cells washed by dilution into 3 ml phosphate buffered saline (pH 7.3), followed by two repetitions of centrifugation, decantation of the supernatant, and resuspension of the cell pellet in the buffered saline solution, and a final centrifugation, decantation, and retention of the cell pellet at 4° C. for subsequent analysis. At the subsequent elapsed incubation times at 1, 2, 3, and 4 hrs., one milliliter samples were harvested and treated in an identical fashion. After treatment of the 4-hr. sample, the cells of each sample were lysed in 3 ml of an 0.1% solution of ctyltetraammonium bromide detergent in phosphate buffered saline (pH=7.3). The fluorescence emission at 520 nm (420 nm excitation) of each sample was determined with a SLM SPT 500C spectrofluorometer. Additionally, the emission intensity of samples of these detergent solutions having, respectively, dye concentrations of […] were prepared as standards for calibrating the concentration dependence of the fluorescence emission.

[2] = 4 hr, external 25 mM (so in the source)

## CCCCCCNc1c(Br)cc2c3c(cccc13)C(=O)N(CCCCCC)C2=O [Compound VII, 3-bromo-4-(hexyl)amino-N-hexyl-1,8-naphthalimide]
[1]; 0.078 μM
  Infectivity, Average: 37.5 PFU/ml
  Infectivity, first PFU/ml column: 45 PFU/ml
  Infectivity, second PFU/ml column: 30 PFU/ml
[1]; 0.156 μM
  Infectivity, Average: 17.5 PFU/ml
  Infectivity, first PFU/ml column: 20 PFU/ml
  Infectivity, second PFU/ml column: 15 PFU/ml
[1]; 0.312 μM
  Infectivity, Average: 7.5 PFU/ml
  Infectivity, first PFU/ml column: 10 PFU/ml
  Infectivity, second PFU/ml column: 5 PFU/ml
[1]; 0.625 μM
  Infectivity, Average: 0 PFU/ml
  Infectivity, first PFU/ml column: 0 PFU/ml
[1]; 1.25 μM
  Infectivity, Average: 0 PFU/ml
  Infectivity, first PFU/ml column: 0 PFU/ml
  Infectivity, second PFU/ml column: 0 PFU/ml
[1]; 2.5 μM
  Infectivity, Average: 0 PFU/ml
  Infectivity, first PFU/ml column: 0 PFU/ml
  Infectivity, second PFU/ml column: 0 PFU/ml
[1]; 5 μM
  Infectivity, Average: 0 PFU/ml
  Infectivity, first PFU/ml column: 0 PFU/ml
  Infectivity, second PFU/ml column: 0 PFU/ml
[1]; 10 μM
  Infectivity, Average: 0 PFU/ml
  Infectivity, first PFU/ml column: 0 PFU/ml
  Infectivity, second PFU/ml column: 0 PFU/ml
[1]; Human alphaherpesvirus 1, light or radiation study, 0.078 μM, read-out: % Survival
  activity at 0.078 µM: 0.006%
[1]; Human alphaherpesvirus 1, light or radiation study, 0.078 μM, read-out: log10 reduction
  log reduction at 0.078 µM: 4.2
[1]; Human alphaherpesvirus 1, light or radiation study, 0.156 μM, read-out: % Survival
  activity at 0.156 µM: 0.0028%
[1]; Human alphaherpesvirus 1, light or radiation study, 0.156 μM, read-out: log10 reduction
  log reduction at 0.156 µM: 4.5
[1]; Human alphaherpesvirus 1, light or radiation study, 0.312 μM, read-out: % Survival
  activity at 0.312 µM: 0.0012%
[1]; Human alphaherpesvirus 1, light or radiation study, 0.312 μM, read-out: log10 reduction
  log reduction at 0.312 µM: 4.9
[1]; Human alphaherpesvirus 1, light or radiation study, 0.625 μM, read-out: % Survival
  activity at 0.625 µM: < 0.0002%
[1]; Human alphaherpesvirus 1, light or radiation study, 0.625 μM, read-out: log10 reduction
  log reduction at 0.625 µM: > 5.7
[1]; Human alphaherpesvirus 1, light or radiation study, 1.25 μM, read-out: % Survival
  activity at 1.25 µM: < 0.0002%
[1]; Human alphaherpesvirus 1, light or radiation study, 1.25 μM, read-out: log10 reduction
  log reduction at 1.25 µM: > 5.7
[1]; Human alphaherpesvirus 1, light or radiation study, 2.5 μM, read-out: % Survival
  activity at 2.5 µM: < 0.0002%
[1]; Human alphaherpesvirus 1, light or radiation study, 2.5 μM, read-out: log10 reduction
  log reduction at 2.5 µM: > 5.7
[1]; Human alphaherpesvirus 1, light or radiation study, 5 μM, read-out: % Survival
  activity at 5 µM: < 0.0002%
[1]; Human alphaherpesvirus 1, light or radiation study, 5 μM, read-out: log10 reduction
  log reduction at 5 µM: > 5.7
[1]; Human alphaherpesvirus 1, light or radiation study, 10 μM, read-out: % Survival
  activity at 10 µM: < 0.0002%
[1]; Human alphaherpesvirus 1, light or radiation study, 10 μM, read-out: log10 reduction
  log reduction at 10 µM: > 5.7
H9 cells; [2]
  average dye concentration in H9 cell: about 1.92 millimolar
  cellular over external concentration: approximately 77 times
H9 cells; 4 hr, external 1 and 5 mm (so in the source)
  increased concentration of the dye by the cell: ~70 fold
H9 cells; external 1 μM, 0 hr, 1 a° mol = 1 × 10^-18 mol
  Cellular Ed6Br: 91.2 a° mol/cell
H9 cells; external 1 μM, 1 hr
  Cellular Ed6Br: 130.2 a° mol/cell
H9 cells; external 1 μM, 2 hr
  Cellular Ed6Br: 189.8 a° mol/cell
H9 cells; external 1 μM, 3 hr
  Cellular Ed6Br: 186.0 a° mol/cell
H9 cells; external 1 μM, 4 hr
  Cellular Ed6Br: 208.3 a° mol/cell
H9 cells; external 5 μM, 0 hr
  Cellular Ed6Br: 165.6 a° mol/cell
H9 cells; external 5 μM, 1 hr
  Cellular Ed6Br: 385.1 a° mol/cell
H9 cells; external 5 μM, 2 hr
  Cellular Ed6Br: 437.2 a° mol/cell
H9 cells; external 5 μM, 3 hr
  Cellular Ed6Br: 468.8 a° mol/cell
H9 cells; external 5 μM, 4 hr
  Cellular Ed6Br: 548.9 a° mol/cell
H9 cells; external 25 μM, 0 hr
  Cellular Ed6Br: 316.2 a° mol/cell
H9 cells; external 25 μM, 1 hr
  Cellular Ed6Br: 716.3 a° mol/cell
H9 cells; external 25 μM, 2 hr
  Cellular Ed6Br: 1073.4 a° mol/cell
H9 cells; external 25 μM, 3 hr
  Cellular Ed6Br: 1689.3 a° mol/cell
H9 cells; external 25 μM, 4 hr
  Cellular Ed6Br: 1748.8 a° mol/cell
